Data taken from ChEMBL document CHEMBL4002605, “Synthesis, identification and in vitro biological evaluation of some novel quinoline incorporated 1,3-thiazinan-4-one derivatives” (Bioorg Med Chem Lett, 2017).
In brackets after ≈: the same amount, converted by molar mass.

What was measured:
[1] = system: Mycobacterium tuberculosis; assay: Antitubercular activity against Mycobacterium tuberculosis H37Rv at 6 ug/mL; type: functional
[2] = system: Bacillus subtilis; assay: Antibacterial activity against Bacillus subtilis MTCC 441 by broth microdilution assay method; type: functional
[3] = system: Clostridium tetani; assay: Antibacterial activity against Clostridium tetani MTCC 449 by broth microdilution assay method; type: functional
[4] = system: Plasmodium falciparum; assay: Antimalarial activity against Plasmodium falciparum; type: functional
[5] = system: Vibrio cholerae; assay: Antibacterial activity against Vibrio cholerae MTCC 3906 by broth microdilution assay method; type: functional
[6] = system: Escherichia coli; assay: Antibacterial activity against Escherichia coli MTCC 443 by broth microdilution assay method; type: functional
[7] = system: Streptococcus pneumoniae; assay: Antibacterial activity against Streptococcus pneumoniae MTCC 1936 by broth microdilution assay method; type: functional
[8] = system: Salmonella typhi; assay: Antibacterial activity against Salmonella typhi MTCC 98 by broth microdilution assay method; type: functional, Salmonella enterica subsp. enterica serovar Typhi; conditions: Salmonella enterica

| Compound | inhibition at 6 µg/mL [1] | MIC [2] | MIC [3] | IC50 [4] | MIC [5] | MIC [6] | MIC [7] | MIC [8] |
| --- | --- | --- | --- | --- | --- | --- | --- | --- |
| O=C1CCSC(c2cccc(F)c2)N1CCNc1ccnc2cc(Cl)ccc12 (centres undefined) | 66% | 250 µg/mL (≈ 601 µM) | 250 µg/mL (≈ 601 µM) | 1.05 µg/mL (≈ 2.52 µM) | 250 µg/mL (≈ 601 µM) | 62.5 µg/mL (≈ 150 µM) | 125 µg/mL (≈ 301 µM) | 250 µg/mL (≈ 601 µM) |
| COc1ccc(C2SCCC(=O)N2CCCNc2ccnc3cc(Cl)ccc23)cc1 (centres undefined) | 57% | 125 µg/mL (≈ 283 µM) | 250 µg/mL (≈ 566 µM) | 0.52 µg/mL (≈ 1.18 µM) | 250 µg/mL (≈ 566 µM) | 250 µg/mL (≈ 566 µM) | 125 µg/mL (≈ 283 µM) | 500 µg/mL (≈ 1130 µM) |
| Cc1ccc(C2SCCC(=O)N2CCNc2ccnc3cc(Cl)ccc23)cc1 (centres undefined) | 57% | 250 µg/mL (≈ 607 µM) | 250 µg/mL (≈ 607 µM) | 1.97 µg/mL (≈ 4.78 µM) | 250 µg/mL (≈ 607 µM) | 250 µg/mL (≈ 607 µM) | 500 µg/mL (≈ 1210 µM) | 500 µg/mL (≈ 1210 µM) |
| O=C(NN1C(=O)CCSC1c1cccc(F)c1)c1cnc2c(C(F)(F)F)cccc2c1O (centres undefined) | 73% | 125 µg/mL (≈ 269 µM) | 125 µg/mL (≈ 269 µM) | 0.91 µg/mL (≈ 1.96 µM) | 125 µg/mL (≈ 269 µM) | 125 µg/mL (≈ 269 µM) | 250 µg/mL (≈ 537 µM) | 250 µg/mL (≈ 537 µM) |
| Cc1ccc(C2SCCC(=O)N2CCCCNc2ccnc3cc(Cl)ccc23)cc1 (centres undefined) | 40% | 250 µg/mL (≈ 568 µM) | 250 µg/mL (≈ 568 µM) | 2.33 µg/mL (≈ 5.3 µM) | 250 µg/mL (≈ 568 µM) | 500 µg/mL (≈ 1140 µM) | 500 µg/mL (≈ 1140 µM) | 500 µg/mL (≈ 1140 µM) |
| O=C(NN1C(=O)CCSC1c1ccc(O)cc1)c1cnc2c(C(F)(F)F)cccc2c1O (centres undefined) | 79% | 125 µg/mL (≈ 270 µM) | 250 µg/mL (≈ 539 µM) | 1.58 µg/mL (≈ 3.41 µM) | 125 µg/mL (≈ 270 µM) | 250 µg/mL (≈ 539 µM) | 250 µg/mL (≈ 539 µM) | 125 µg/mL (≈ 270 µM) |
| O=C1CCSC(c2ccc(O)cc2)N1CCCNc1ccnc2cc(Cl)ccc12 (centres undefined) | 42% | 250 µg/mL (≈ 584 µM) | 250 µg/mL (≈ 584 µM) | 1.14 µg/mL (≈ 2.66 µM) | 250 µg/mL (≈ 584 µM) | 250 µg/mL (≈ 584 µM) | 125 µg/mL (≈ 292 µM) | 62.5 µg/mL (≈ 146 µM) |
| O=C(NN1C(=O)CCSC1c1ccc(Cl)cc1)c1cnc2c(C(F)(F)F)cccc2c1O (centres undefined) | 90% | 62.5 µg/mL (≈ 130 µM) | 125 µg/mL (≈ 259 µM) | 0.067 µg/mL (≈ 0.139 µM) | 125 µg/mL (≈ 259 µM) | 250 µg/mL (≈ 519 µM) | 250 µg/mL (≈ 519 µM) | 250 µg/mL (≈ 519 µM) |
| O=C(NN1C(=O)CCSC1c1ccccc1)c1cnc2c(C(F)(F)F)cccc2c1O (centres undefined) | 55% | 250 µg/mL (≈ 559 µM) | 500 µg/mL (≈ 1120 µM) | 2.1 µg/mL (≈ 4.69 µM) | 500 µg/mL (≈ 1120 µM) | 500 µg/mL (≈ 1120 µM) | 500 µg/mL (≈ 1120 µM) | 500 µg/mL (≈ 1120 µM) |
| O=C1CCSC(c2ccc(Br)cc2)N1CCCCNc1ccnc2cc(Cl)ccc12 (centres undefined) | 82% | 100 µg/mL (≈ 198 µM) | 250 µg/mL (≈ 495 µM) | 0.064 µg/mL (≈ 0.127 µM) | 125 µg/mL (≈ 248 µM) | 62.5 µg/mL (≈ 124 µM) | 100 µg/mL (≈ 198 µM) | 62.5 µg/mL (≈ 124 µM) |
| COc1ccc(C2SCCC(=O)N2CCCCNc2ccnc3cc(Cl)ccc23)cc1 (centres undefined) | 48% | 250 µg/mL (≈ 548 µM) | 250 µg/mL (≈ 548 µM) | 0.81 µg/mL (≈ 1.78 µM) | 125 µg/mL (≈ 274 µM) | 500 µg/mL (≈ 1100 µM) | 250 µg/mL (≈ 548 µM) | 250 µg/mL (≈ 548 µM) |
| O=C1CCSC(c2ccc(O)cc2)N1CCNc1ccnc2cc(Cl)ccc12 (centres undefined) | 74% | 62.5 µg/mL (≈ 151 µM) | 250 µg/mL (≈ 604 µM) | 1.78 µg/mL (≈ 4.3 µM) | 250 µg/mL (≈ 604 µM) | 500 µg/mL (≈ 1210 µM) | 250 µg/mL (≈ 604 µM) | 250 µg/mL (≈ 604 µM) |
| COc1ccc(C2SCCC(=O)N2CCNc2ccnc3cc(Cl)ccc23)cc1 (centres undefined) | 60% | 250 µg/mL (≈ 584 µM) | 125 µg/mL (≈ 292 µM) | 0.62 µg/mL (≈ 1.45 µM) | 250 µg/mL (≈ 584 µM) | 125 µg/mL (≈ 292 µM) | 250 µg/mL (≈ 584 µM) | 250 µg/mL (≈ 584 µM) |
| O=C1CCSC(c2ccc(F)cc2)N1CCNc1ccnc2cc(Cl)ccc12 (centres undefined) | 80% | 62.5 µg/mL (≈ 150 µM) | 15.6 µg/mL (≈ 37.5 µM) | 0.081 µg/mL (≈ 0.195 µM) | 125 µg/mL (≈ 301 µM) | 62.5 µg/mL (≈ 150 µM) | 62.5 µg/mL (≈ 150 µM) | 62.5 µg/mL (≈ 150 µM) |
| Cc1ccc(C2SCCC(=O)N2CCCNc2ccnc3cc(Cl)ccc23)cc1 (centres undefined) | 41% | 125 µg/mL (≈ 293 µM) | 500 µg/mL (≈ 1170 µM) | 2.2 µg/mL (≈ 5.16 µM) | 500 µg/mL (≈ 1170 µM) | 250 µg/mL (≈ 587 µM) | 250 µg/mL (≈ 587 µM) | 500 µg/mL (≈ 1170 µM) |
| O=C1CCSC(c2cccc(Cl)c2)N1CCCCNc1ccnc2cc(Cl)ccc12 (centres undefined) | 49% | 250 µg/mL (≈ 543 µM) | 250 µg/mL (≈ 543 µM) | 1.93 µg/mL (≈ 4.19 µM) | 125 µg/mL (≈ 271 µM) | 250 µg/mL (≈ 543 µM) | 250 µg/mL (≈ 543 µM) | 125 µg/mL (≈ 271 µM) |
| O=C1CCSC(c2ccccc2)N1CCCNc1ccnc2cc(Cl)ccc12 (centres undefined) | 47% | 500 µg/mL (≈ 1210 µM) | 500 µg/mL (≈ 1210 µM) | 3.5 µg/mL (≈ 8.5 µM) | 500 µg/mL (≈ 1210 µM) | 500 µg/mL (≈ 1210 µM) | 500 µg/mL (≈ 1210 µM) | 500 µg/mL (≈ 1210 µM) |
| CCn1cc(C(=O)O)c(=O)c2cc(F)c(N3CCNCC3)cc21 [NORFLOXACIN] | – | 100 µg/mL (≈ 313 µM) | 50 µg/mL (≈ 157 µM) | – | 10 µg/mL (≈ 31.3 µM) | 10 µg/mL (≈ 31.3 µM) | 10 µg/mL (≈ 31.3 µM) | 10 µg/mL (≈ 31.3 µM) |
| COc1ccc(C2SCCC(=O)N2NC(=O)c2cnc3c(C(F)(F)F)cccc3c2O)cc1 (centres undefined) | 70% | 125 µg/mL (≈ 262 µM) | 250 µg/mL (≈ 524 µM) | 1.45 µg/mL (≈ 3.04 µM) | 250 µg/mL (≈ 524 µM) | 250 µg/mL (≈ 524 µM) | 250 µg/mL (≈ 524 µM) | 125 µg/mL (≈ 262 µM) |
| O=C1CCSC(c2ccc(F)cc2)N1CCCCNc1ccnc2cc(Cl)ccc12 (centres undefined) | 65% | 100 µg/mL (≈ 225 µM) | 125 µg/mL (≈ 282 µM) | 0.092 µg/mL (≈ 0.207 µM) | 62.5 µg/mL (≈ 141 µM) | 125 µg/mL (≈ 282 µM) | 100 µg/mL (≈ 225 µM) | 62.5 µg/mL (≈ 141 µM) |
| COc1cccc(C2SCCC(=O)N2CCCCNc2ccnc3cc(Cl)ccc23)c1 (centres undefined) | 42% | 500 µg/mL (≈ 1100 µM) | 250 µg/mL (≈ 548 µM) | 2.14 µg/mL (≈ 4.69 µM) | 125 µg/mL (≈ 274 µM) | 250 µg/mL (≈ 548 µM) | 500 µg/mL (≈ 1100 µM) | 250 µg/mL (≈ 548 µM) |
| O=C1CCSC(c2ccc(Br)cc2)N1CCNc1ccnc2cc(Cl)ccc12 (centres undefined) | 95% | 31.2 µg/mL (≈ 65.5 µM) | 31.2 µg/mL (≈ 65.5 µM) | 0.045 µg/mL (≈ 0.0944 µM) | 31.2 µg/mL (≈ 65.5 µM) | 125 µg/mL (≈ 262 µM) | 62.5 µg/mL (≈ 131 µM) | 100 µg/mL (≈ 210 µM) |
| C=C[C@H]1CN2CC[C@H]1C[C@H]2[C@H](O)c1ccnc2ccc(OC)cc12 [QUININE] | – | – | – | 0.271 µg/mL (≈ 0.835 µM) | – | – | – | – |
| CO[C@H]1/C=C/O[C@@]2(C)Oc3c(C)c(O)c4c(O)c(c(/C=N/N5CCN(C)CC5)c(O)c4c3C2=O)NC(=O)/C(C)=C\C=C\[C@H](C)[C@H](O)[C@@H](C)[C@@H](O)[C@@H](C)[C@H](OC(C)=O)[C@@H]1C [RIFAMPIN] | 98% | – | – | – | – | – | – | – |
| O=C1CCSC(c2ccccc2)N1CCCCNc1ccnc2cc(Cl)ccc12 (centres undefined) | 32% | 500 µg/mL (≈ 1170 µM) | 500 µg/mL (≈ 1170 µM) | 3.12 µg/mL (≈ 7.32 µM) | 500 µg/mL (≈ 1170 µM) | 500 µg/mL (≈ 1170 µM) | 500 µg/mL (≈ 1170 µM) | 500 µg/mL (≈ 1170 µM) |
| O=C(O)c1cn(C2CC2)c2cc(N3CCNCC3)c(F)cc2c1=O [CIPROFLOXACIN] | – | – | – | – | 25 µg/mL (≈ 75.4 µM) | 25 µg/mL (≈ 75.4 µM) | 25 µg/mL (≈ 75.4 µM) | 25 µg/mL (≈ 75.4 µM) |
| CC1(C)S[C@@H]2[C@H](NC(=O)[C@H](N)c3ccccc3)C(=O)N2[C@H]1C(=O)O [AMPICILLIN] | – | 250 µg/mL (≈ 715 µM) | 250 µg/mL (≈ 715 µM) | – | 100 µg/mL (≈ 286 µM) | 100 µg/mL (≈ 286 µM) | 100 µg/mL (≈ 286 µM) | 100 µg/mL (≈ 286 µM) |
